Consider one compound from paper PMC9967085, “Properly Substituted Benzimidazoles as a New Promising Class of Nicotinate Phosphoribosyltransferase (NAPRT) Modulators” (Pharmaceuticals, 2023).

Series [1] in a line: Plasma protein binding by equilibrium dialysis, human. In kind it is in vitro ADME. The settings on record: performed at 0.5 μM, read-out: Protein Binding, Human plasma (FU). Here is the method: (§1) The in silico ADME characterization has recently been reported for NAPRT inhibitors 1, 15 and 16, belonging to different chemotypes, and the results indicated promising pharmacokinetic features for the studied compounds [17]. With the aim to preliminarily shed light on the pharmacokinetics of this series of compounds, 18 was evaluated for its in vitro ADME profile. Kinetic solubility at pH 7.4, plasma protein binding from human and mouse species determined by using equilibrium dialysis, intrinsic hepatic clearance determined in human and mouse liver microsomes, and permeability studies in MDCKII (Madin–Darby canine kidney cells, a cell strain derived from the distal tubule or collecting duct of the nephron) and MDCKII-MDR1 (MDCK II cells overexpressing the multidrug resistance protein 1, MDR1) cell lines were performed according to previously reported procedures. Both cell lines were originally obtained from American Type Culture Collection (ATCC) and have been cultured and amplified with respect to permeability assessment at the test site.
For orientation: In equilibrium dialysis free small molecules cross a membrane that holds back macromolecules.

Series [2] in a line: Permeability in MDCKII cells. In kind it is in vitro ADME, canine. As to conditions: dog, MDCK. The protocol:
as §1

For the next series, the system named is MDCKII-MDR1. Description: Permeability in MDCKII-MDR1 cells. In kind it is in vitro ADME, canine. As to conditions: from efflux ratio in MDCKII-MDR1. The protocol:
as §1

The subject of another series is MDR1. The series can be described thus: Permeability in MDCKII-MDR1 cells. In kind it is in vitro ADME, canine. As to conditions: dog, MDCK-MDR1. Here is the method:
as §1

Series [3] in a line: Kinetic solubility at pH 7.4. In kind it is physicochemical. As to conditions: pH 7.4, aqueous buffer, kinetic from dmso stock. The protocol: as §1
Series [4] can be described thus: Hepatic intrinsic clearance in mouse liver microsomes. In kind it is in vitro ADME. Here is the method:
as §1

The target in series [5] is T1, Human recombinant NAPRT (Homo sapiens, UniProt Q6XQN6).
T1 construct: made in house
T1 sequence (Q6XQN6 1-538): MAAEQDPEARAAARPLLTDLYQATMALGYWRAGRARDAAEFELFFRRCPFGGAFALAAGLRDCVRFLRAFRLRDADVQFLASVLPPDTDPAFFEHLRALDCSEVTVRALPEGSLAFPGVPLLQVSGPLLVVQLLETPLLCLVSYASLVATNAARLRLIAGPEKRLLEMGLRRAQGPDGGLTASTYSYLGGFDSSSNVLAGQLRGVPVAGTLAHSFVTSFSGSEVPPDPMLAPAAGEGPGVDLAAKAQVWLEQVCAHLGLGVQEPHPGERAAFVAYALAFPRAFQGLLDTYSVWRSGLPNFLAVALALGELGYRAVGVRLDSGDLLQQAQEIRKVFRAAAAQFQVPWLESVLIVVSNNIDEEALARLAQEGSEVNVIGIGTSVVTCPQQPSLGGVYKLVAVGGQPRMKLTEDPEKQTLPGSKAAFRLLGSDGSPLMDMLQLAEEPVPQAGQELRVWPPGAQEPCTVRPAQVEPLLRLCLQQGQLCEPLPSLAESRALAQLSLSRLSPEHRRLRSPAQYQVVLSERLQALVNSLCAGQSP
Description: HPLC-based NAPRT activity screening assay. In kind it is biochemical.

Series [6] addresses T1, Human recombinant NAPRT. Description: Kinetic analyses of NAPRT inhibition (HPLC assay, Lineweaver–Burk plot). In kind it is biochemical.
Series [7] in a line: Hepatic intrinsic clearance in human liver microsomes. In kind it is in vitro ADME. The protocol: as §1
Series [8] in a line: Plasma protein binding by equilibrium dialysis, mouse. In kind it is in vitro ADME. The settings on record: performed at 0.5 μM, read-out: Protein Binding, Mouse plasma (FU). The protocol:
as §1

Where “and” joins values, the source holds several entries; their conditions need not be identical. Equal values may be shown once. Read-outs that look alike come from different tables or passages of the source.

Take `CC(=O)Nc1cccc(CNc2ccc3c(c2)nc(C)n3C)c1` [Compound 18, N-(3-(((1,2-dimethyl-1H-benzo[d]imidazol-5-yl)amino)methyl)phenyl)acetamide]: the fraction unbound at 0.5 μM in series [1] is 0.146; in series [8], > 0.5. Further, the results for the Papp A→B (in [2] (apical to basolateral); in the series with MDR1 (apical to basolateral)) were 3.83 ×10⁻⁶ cm/s and 0.339 ×10⁻⁶ cm/s, respectively. Further, the apparent permeability from basolateral to apical (Papp B→A) stood at 6.59 ×10⁻⁶ cm/s in [2] (basolateral to apical) and 17.4 ×10⁻⁶ cm/s in the series on MDR1 (basolateral to apical). The efflux ratio in [2] (read-out: Efflux Ratio MDCKII (B-A/A-B)) is 1.7; in the series with MDR1 (read-out: Efflux Ratio MDCKII-MDR1 (B-A/A-B)), 51.3. In addition, the P-gp substrate status entry with MDCKII-MDR1 was “P-gp substrate”. In series [3], the kinetic solubility was 312 µM and 130 µg/mL. The “Mouse Cli” value in series [4] (mouse liver microsomes) came to 120 µL/min/mg protein. In addition, the “WSM in vivo prediction” value in series [4] (mouse, well-stirred model) is listed as 26.9 mL/min/kg; in [7] (human, well-stirred model) it was 6.83 mL/min/kg. On Human recombinant NAPRT [5], the “Effect on NAPRT catalytic activity (in words)” value is given as “inhibit NAPRT activity”. Further, the “-Fold Stimulation (not active class)” value on Human recombinant NAPRT [5] (1 mM compound, 0.2 mM NA, 0.4 mM PRPP) was “- (Not active, it is referred to compounds showing less than 10% inhibition or less than 1.10-fold stimulation)”. Besides, the inhibition at 1000 µM at Human recombinant NAPRT [5] (1 mM compound, 0.2 mM NA, 0.4 mM PRPP, read-out: % Inhibition) is 46.1 ± 8.1%. Besides, on Human recombinant NAPRT [6], the “Inhibition mechanism towards NA” value is reported as “noncompetitive”. Moreover, on Human recombinant NAPRT [6], the “Inhibition mechanism towards PRPP” value was “mixed”. Also, the Ki on Human recombinant NAPRT [6] (NA 25 µM to 100 µM at 0.4 mM PRPP, noncompetitive, read-out: Ki towards NA) is 338 µM; at Human recombinant NAPRT [6] (PRPP 25 µM to 100 µM at 0.4 mM NA, mixed, read-out: Ki towards PRPP) it was 134 µM. In addition, the “Human Cli” value in [7] (human liver microsomes) is on record as <9.92 µL/min/mg protein.

What is called Papp A→B is the apparent permeability from the apical to the basolateral side of a cell layer. For orientation: Papp B→A means how fast a substance crosses the layer from the basolateral side. As a reminder, the solubility (kinetic) is solubility judged after dilution from a stock solution rather than from solid. One may read the inhibition as the drop in the measured response relative to a control, in per cent. Broadly, the Ki is the equilibrium dissociation constant of an inhibitor or competing ligand from its target.
